Data: BindingDB's records for patent US9278914 (University of Tennessee Research Foundation, 2016)

Target: Cytochrome P450 2C9 (Homo sapiens, UniProt P11712)
Test: In Vitro CYP Inhibition Assay
Details: 37 °C

Cytochrome P450 2C9, sequence (P11712 whole entry): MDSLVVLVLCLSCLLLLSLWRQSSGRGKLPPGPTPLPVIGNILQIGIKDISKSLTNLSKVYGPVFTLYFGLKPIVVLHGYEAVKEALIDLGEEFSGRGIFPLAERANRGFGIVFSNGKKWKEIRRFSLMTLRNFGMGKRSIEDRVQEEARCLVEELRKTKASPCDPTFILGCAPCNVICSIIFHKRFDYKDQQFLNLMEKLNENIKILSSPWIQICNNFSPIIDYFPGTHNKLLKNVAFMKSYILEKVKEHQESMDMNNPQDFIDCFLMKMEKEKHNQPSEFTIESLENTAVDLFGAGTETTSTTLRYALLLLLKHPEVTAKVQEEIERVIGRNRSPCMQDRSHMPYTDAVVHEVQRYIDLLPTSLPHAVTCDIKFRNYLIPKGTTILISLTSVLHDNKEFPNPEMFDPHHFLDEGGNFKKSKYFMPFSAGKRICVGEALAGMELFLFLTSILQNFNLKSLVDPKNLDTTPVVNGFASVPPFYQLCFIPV

For `C[C@](O)(COc1ccc(Cl)c(F)c1)C(=O)Nc1ccc(C#N)c(C(F)(F)F)c1` [US9278914, S-II], the IC50 was > 20 µM.
